Laboratory results taken from US20210045385A1, “PYRIDAZINONE-SUBSTITUTED KETOXIMES AS HERBICIDES” (FMC Corporation, priority 2018, published 2021).

How the values were obtained:
Type in all cases: in vivo
[1] = test system: Italian ryegrass (Lolium multiflorum); test: Test A preemergence, visual plant response rating; conditions: for Ryegrass, Italian plant response rating: 125 g ai/ha, preemergence, 0 to 100 scale, 0 no effect, 100 complete control; for Ryegrass, Italian plant response rating (0 to 100 scale): 500 g ai/ha Preemergence, approx. 10 days
Method in brief: (§1)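 Preemergence: seeds in loam/sand blend given directed soil spray of compound in non-phytotoxic solvent with surfactant. Postemergence: plants 2–10 cm, one- to two-leaf stage, sprayed with same formulation. Visual injury rated vs untreated controls after ~10 days in greenhouse, 0 (no effect) to 100 (complete control).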

[2] = test system: barnyardgrass (Echinochloa crus-galli); test: Test A preemergence, visual plant response rating; conditions: for Barnyardgrass plant response rating: 125 g ai/ha, preemergence, 0 to 100 scale, 0 no effect, 100 complete control; for Barnyardgrass plant response rating (0 to 100 scale): 500 g ai/ha Preemergence, approx. 10 days
Method in brief: as §1

[3] = test system: foxtail, giant (giant foxtail, Setaria faberii); test: Test A preemergence, visual plant response rating; conditions: for Foxtail, Giant plant response rating: 125 g ai/ha, preemergence, 0 to 100 scale, 0 no effect, 100 complete control; for Foxtail, Giant plant response rating (0 to 100 scale): 500 g ai/ha Preemergence, approx. 10 days
Method in brief: as §1

[4] = test system: kochia (Kochia scoparia); test: Test A preemergence, visual plant response rating; conditions: for Kochia plant response rating: 125 g ai/ha, preemergence, 0 to 100 scale, 0 no effect, 100 complete control; for Kochia plant response rating (0 to 100 scale): 500 g ai/ha Preemergence, approx. 10 days
Method in brief: as §1

[5] = test system: pigweed (Amaranthus retroflexus); test: Test A preemergence, visual plant response rating; conditions: for Pigweed plant response rating: 125 g ai/ha, preemergence, 0 to 100 scale, 0 no effect, 100 complete control; for Pigweed plant response rating (0 to 100 scale): 500 g ai/ha Preemergence, approx. 10 days
Method in brief: as §1

[6] = test system: ragweed (common ragweed, Ambrosia elatior); test: Test A preemergence, visual plant response rating; conditions: for Ragweed plant response rating: 125 g ai/ha, preemergence, 0 to 100 scale, 0 no effect, 100 complete control; for Ragweed plant response rating (0 to 100 scale): 500 g ai/ha Preemergence, approx. 10 days
Method in brief: as §1

[7] = test system: Italian ryegrass (Lolium multiflorum); test: Test A postemergence, visual plant response rating; conditions: for Ryegrass, Italian plant response rating (0 to 100 scale): 500 g ai/ha, postemergence, 0 is no effect, 100 is complete control; for Ryegrass, Italian plant response rating: Postemergence, 125 g ai/ha, 0 to 100 scale (0 no effect, 100 complete control)
Method in brief: as §1

[8] = test system: barnyardgrass (Echinochloa crus-galli); test: Test A postemergence, visual plant response rating; conditions: for Barnyardgrass plant response rating (0 to 100 scale): 500 g ai/ha, postemergence, 0 is no effect, 100 is complete control; for Barnyardgrass plant response rating: Postemergence, 125 g ai/ha, 0 to 100 scale (0 no effect, 100 complete control)
Method in brief: as §1

[9] = test system: blackgrass (Alopecurus myosuroides); test: Test A postemergence, visual plant response rating; conditions: for Blackgrass plant response rating (0 to 100 scale): 500 g ai/ha, postemergence, 0 is no effect, 100 is complete control; for Blackgrass plant response rating: Postemergence, 125 g ai/ha, 0 to 100 scale (0 no effect, 100 complete control)
Method in brief: as §1

[10] = test system: corn (Zea mays); test: Test A postemergence, visual plant response rating; conditions: for Corn plant response rating (0 to 100 scale): 500 g ai/ha, postemergence, 0 is no effect, 100 is complete control; for Corn plant response rating: Postemergence, 125 g ai/ha, 0 to 100 scale (0 no effect, 100 complete control)
Method in brief: as §1

[11] = test system: foxtail, giant (giant foxtail, Setaria faberii); test: Test A postemergence, visual plant response rating; conditions: for Foxtail, Giant plant response rating (0 to 100 scale): 500 g ai/ha, postemergence, 0 is no effect, 100 is complete control; for Foxtail, Giant plant response rating: Postemergence, 125 g ai/ha, 0 to 100 scale (0 no effect, 100 complete control)
Method in brief: as §1

[12] = test system: galium (catchweed bedstraw, Galium aparine); test: Test A postemergence, visual plant response rating; conditions: for Galium plant response rating (0 to 100 scale): 500 g ai/ha, postemergence, 0 is no effect, 100 is complete control; for Galium plant response rating: Postemergence, 125 g ai/ha, 0 to 100 scale (0 no effect, 100 complete control)
Method in brief: as §1

[13] = test system: kochia (Kochia scoparia); test: Test A postemergence, visual plant response rating; conditions: for Kochia plant response rating (0 to 100 scale): 500 g ai/ha, postemergence, 0 is no effect, 100 is complete control; for Kochia plant response rating: Postemergence, 125 g ai/ha, 0 to 100 scale (0 no effect, 100 complete control)
Method in brief: as §1

[14] = test system: pigweed (Amaranthus retroflexus); test: Test A postemergence, visual plant response rating; conditions: for Pigweed plant response rating (0 to 100 scale): 500 g ai/ha, postemergence, 0 is no effect, 100 is complete control; for Pigweed plant response rating: Postemergence, 125 g ai/ha, 0 to 100 scale (0 no effect, 100 complete control)
Method in brief: as §1

[15] = test system: ragweed (common ragweed, Ambrosia elatior); test: Test A postemergence, visual plant response rating; conditions: for Ragweed plant response rating (0 to 100 scale): 500 g ai/ha, postemergence, 0 is no effect, 100 is complete control; for Ragweed plant response rating: Postemergence, 125 g ai/ha, 0 to 100 scale (0 no effect, 100 complete control)
Method in brief: as §1

[16] = test system: wheat (Triticum aestivum); test: Test A postemergence, visual plant response rating; conditions: for Wheat plant response rating (0 to 100 scale): 500 g ai/ha, postemergence, 0 is no effect, 100 is complete control; for Wheat plant response rating: Postemergence, 125 g ai/ha, 0 to 100 scale (0 no effect, 100 complete control)
Method in brief: as §1

[17] = test system: barnyardgrass (Echinochloa crus-galli); test: Test B flooded paddy test, visual plant response rating; conditions: 250 g ai/ha, Flood, applied to paddy water, 2-leaf stage, evaluated after 13 to 15 days
Method in brief: (§2)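 Rice, umbrella sedge, ducksalad and barnyardgrass grown to 2-leaf stage; pots flooded 3 cm above soil and compound applied directly to paddy water, depth maintained.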

[18] = test system: ducksalad (Heteranhera limosa); test: as above; conditions: 250 g ai/ha, Flood, applied to paddy water, 2-leaf stage, evaluated after 13 to 15 days
Method in brief: as §2

[19] = test system: rice (Oryza sativa); test: as above; conditions: 250 g ai/ha, Flood, applied to paddy water, 2-leaf stage, evaluated after 13 to 15 days
Method in brief: as §2

[20] = test system: sedge, umbrella (small-flower umbrella sedge, Cyperus difformis); test: as above; conditions: 250 g ai/ha, Flood, applied to paddy water, 2-leaf stage, evaluated after 13 to 15 days
Method in brief: as §2

Cc1nn(C)c(=O)c(C(=NOCC=CCl)c2ccc(F)c3ccccc23)c1O [Compound 107]
100: Foxtail, Giant plant response rating (0 to 100 scale) [3] | Pigweed plant response rating (0 to 100 scale) [14]
80: Foxtail, Giant plant response rating [3] | Pigweed plant response rating (0 to 100 scale) [5] | Ragweed plant response rating (0 to 100 scale) [6] | Barnyardgrass plant response rating [8] | Blackgrass plant response rating (0 to 100 scale) [9] | Blackgrass plant response rating [9] | Foxtail, Giant plant response rating (0 to 100 scale) [11] | Pigweed plant response rating [14] | Ragweed plant response rating [15]
70: Ryegrass, Italian plant response rating [1] | Barnyardgrass plant response rating [2] | Ryegrass, Italian plant response rating [7] | Foxtail, Giant plant response rating [11] | Galium plant response rating [12]
30: Kochia plant response rating (0 to 100 scale) [4] | Kochia plant response rating [13]
40: Wheat plant response rating (0 to 100 scale) [16]
60: Pigweed plant response rating [5] | Kochia plant response rating (0 to 100 scale) [13]
20: Ragweed plant response rating [6] | Corn plant response rating (0 to 100 scale) [10]
0: Kochia plant response rating [4] | Corn plant response rating [10] | Wheat plant response rating [16] | Plant response rating, Barnyardgrass (0 to 100 scale, 0 is no effect, 100 is complete control) [17] | Plant response rating, Ducksalad (0 to 100 scale, 0 is no effect, 100 is complete control) [18] | Plant response rating, Rice (0 to 100 scale, 0 is no effect, 100 is complete control) [19] | Plant response rating, Sedge, Umbrella (0 to 100 scale, 0 is no effect, 100 is complete control) [20]
90: Ryegrass, Italian plant response rating (0 to 100 scale) [1] | Barnyardgrass plant response rating (0 to 100 scale) [2] | Ryegrass, Italian plant response rating (0 to 100 scale) [7] | Barnyardgrass plant response rating (0 to 100 scale) [8] | Galium plant response rating (0 to 100 scale) [12] | Ragweed plant response rating (0 to 100 scale) [15]

C#CCO/N=C(\c1c(O)c(C)nn(C)c1=O)c1ccc(F)c2ccccc12 [Compound 108, 4-[(Z)-(4-fluoro-1-naphthalenyl)(2-propyn-1-yloxy)imino]methyl-5-hydroxy-2,6-dimethyl-3(2H)-pyridazinone]
90: Barnyardgrass plant response rating [2] | Ragweed plant response rating [6] | Barnyardgrass plant response rating (0 to 100 scale) [8] | Barnyardgrass plant response rating [8] | Foxtail, Giant plant response rating (0 to 100 scale) [11] | Pigweed plant response rating [14]
0: Plant response rating, Barnyardgrass (0 to 100 scale, 0 is no effect, 100 is complete control) [17] | Plant response rating, Ducksalad (0 to 100 scale, 0 is no effect, 100 is complete control) [18] | Plant response rating, Rice (0 to 100 scale, 0 is no effect, 100 is complete control) [19] | Plant response rating, Sedge, Umbrella (0 to 100 scale, 0 is no effect, 100 is complete control) [20]
50: Kochia plant response rating [4]
70: Wheat plant response rating [16]
60: Kochia plant response rating [13]
30: Corn plant response rating [10]
100: Ryegrass, Italian plant response rating [1] | Ryegrass, Italian plant response rating (0 to 100 scale) [1] | Barnyardgrass plant response rating (0 to 100 scale) [2] | Foxtail, Giant plant response rating [3] | Foxtail, Giant plant response rating (0 to 100 scale) [3] | Kochia plant response rating (0 to 100 scale) [4] | Pigweed plant response rating [5] | Pigweed plant response rating (0 to 100 scale) [5] | Ragweed plant response rating (0 to 100 scale) [6] | Ryegrass, Italian plant response rating (0 to 100 scale) [7] | Ryegrass, Italian plant response rating [7] | Blackgrass plant response rating (0 to 100 scale) [9] | Blackgrass plant response rating [9] | Galium plant response rating (0 to 100 scale) [12] | Galium plant response rating [12] | Pigweed plant response rating (0 to 100 scale) [14] | Ragweed plant response rating (0 to 100 scale) [15]
80: Corn plant response rating (0 to 100 scale) [10] | Foxtail, Giant plant response rating [11] | Kochia plant response rating (0 to 100 scale) [13] | Ragweed plant response rating [15] | Wheat plant response rating (0 to 100 scale) [16]
